Laboratory results reported in patent publication US12595279B2, “Modified nucleoside and synthetic methods thereof” (STEMIRNA THERAPEUTICS CO., LTD., priority 2019, dated 2026).

Legend:
[1] = system: mice dendritic cells (D.2.4 cells); test: Expression of 100% cytidine-modified luciferase (FLuc) mRNA, LPP-wrapped, in dendritic cells (luciferase activity, RLU); assay type: cell-based; conditions: FIG. 2; for difference of luciferase expression versus the control and m^4C (significance analysis on variance): 100% of cytidine replaced, control = cytidine without modification, P≤0.01, 24 h after transfection
From the text: Obtaining of the mRNA of the modified luciferase: DNA sequence of Luc may be in vitro transcribed to mRNA by means of a transcriptase under a conventional reagent condition. During the process of transcription, modified mRNA in varying proportions were obtained according to a ratio of the modified C (cytidine) and non-modified C, where the modified mRNA may contain U-modified mRNA in varying proportions. The sequence was in vitro synthesized into the following modified mRMA, thus forming new modified luciferase. In the above sequence (SEQ NO:1), cytidine was replaced by the modified C* in the present invention; and the following modified C* denotes the expression of the mRNA of 5 monocytidine-modified mRNA having a modification ratio of 100% (namely, all the C were replaced into the following 5 different C* modifications, m^4C (N4-methylcytidine), and m^4Cm (N^4, 2′-O-dimethylcytidine), specifically as shown in Table 1.
1.2.1: Preparation of a phospholipid mixed liquor: phospholipid:DOPE:mPEG2000-DSPE=49:49:2 were dissolved into an ethanol solution. DOPE was purchased from Avanti, mPEG2000-DSPE was purchased from cordenpharma, and PBS was purchased from Invitrogen.
1.2.2: Preparation of mRNA: 1 mL mRNA (mRNA having a concentration of 0.2 mg/mL and total mass of 0.2 mg as shown in Table 2) in each treatment group was respectively sucked up by a BD injector.
1.2.3: Preparation of phospholipid/mRNA: […] and 3 mL phospholipid solution (having a concentration of 12 mg/mL) were respectively sucked up by a BD injector and inserted into a micro-fluidic chip (the microfluidics herein should be a small-sized equipment capable of producing package for nanoparticles); the setup parameters: volume: 9.0 mL; and flow rate ratio: 3:1, total flow rate: 1 mL/min; temperature: 37.0° C., initial amount: 0.35 mL; ending amount: 0.10 mL, thus a phospholipid/mRNA solution was obtained, namely, mRNA particles wrapped by phospholipid and a phospholipid mixed solution were obtained.
Thereby, the wrapped mRNA carrier in each treatment group was obtained.
Experiment reagent: (1) water was added to a harvest buffer (25 ml): 1.25 ml 1 M Tris-HCl(pH7.5), 25 μl 1 M DTT, 250 μl 10% Triton X-100 to 25 ml for storage at 4° C. (2) water was added to an ATP buffer (10 ml): 1.25 ml 1 M Tris-HCl(pH7.5), 250 μl 1 M MgCl2, 24 mg ATP to 10 ml for storage at […] (3) luciferin buffer (36 ml): 10 mg luciferin, 36 ml 5 mM KH2PO4 (pH7.8) was performed for storage at 4° C. (4) PBS: […], 2.68 mMKCl, 10 mM Na2HPO4, 1.76 mM KH2PO4 was performed for storage at 4° C. […]
1.3.6: same volume of cell lysis buffer (100 μl) was successively taken and put to the microcentrifuge tubes in step 5, and mixed evenly immediately, and […] were read on a Luminometer. […]

dendritic cells [2] = test: Influence of a 120A Poly(A) tail on the 3′ terminal on expression of modified luciferase mRNA in dendritic cells; assay type: cell-based, mice; conditions: 120A tail; luciferase mRNA 100% modified; compared with FIG. 2 (FIG. 3)
Description: 120A was added on a 3′ terminal as a tail, so as to survey the influence of adding Poly(A) on the 3′ terminal on the translation effect, as well as on the expression of the luciferase 100% modified by the inventions 1-4 and control group. The influence on enzyme expression was measured according to the packaging method and cell infection method in Example 1. It can be obviously seen through the comparison of FIG. 2 that the expression was increased both to the modified or non-modified mRNA after adding a Ploy (A) structure on the 3′ terminal.

dendritic cells [3] = test: Influence of different modification ratios of cytidine on luciferase mRNA expression; assay type: cell-based, mice; conditions: for difference of expression at the best modification ratio versus other modification ratios (variance analysis): best ratio: invention 1 80%-100%, invention 4 20%, invention 2 40%, invention 3 5%; for trend of expression with the increase of the modification ratio: cytidine replaced at 0.5% to 100%; for trend of expression with the increase of the modification ratio / modification ratio with the maximum (optimal) expression quantity: FIGS. 4-7; for modification ratio with the maximum (optimal) expression quantity / modification ratio at which the expression quantity is relatively high: luciferase mRNA, part of the cytidine replaced; for modification ratio at which the expression quantity is relatively high: FIGS. 5-7
Description: mRNA of the luciferase in Example 1 was set as an example; a portion of cytidine was replaced with the compounds of the modified cytidine in the present invention having a ratio of 0.5%, 5%, 10%, 20%, 30%, 40%, 50%, 70%, 80% and 90%; and the specific replacement method was as follows: transcription was performed by a transcriptase of in vitro luciferase DNA with the supply of AUCG raw materials and according to a conventional method, where the synthesis method should be controlled and replaced, and then a portion of cytidine in mRNA was replaced according to the above ratio. The influence of the replacement in different ratios on the expression of mRNA was surveyed.

| SMILES | difference of luciferase expression versus the control and m^4C (significance analysis on variance) [1] | change of expression after adding a Poly(A) structure on the 3′ terminal (dendritic cells [2]) | difference of expression at the best modification ratio versus other modification ratios (variance analysis) (dendritic cells [3]) | trend of expression with the increase of the modification ratio (dendritic cells [3]) | modification ratio with the maximum (optimal) expression quantity (dendritic cells [3]) | difference of luciferase expression versus m^4Cm-modified mRNA ([1]; 100% modification, comparator m^4Cm (N^4,2′-O-dimethylcytidine)) | modification ratio at which the expression quantity is relatively high (dendritic cells [3]) |
| --- | --- | --- | --- | --- | --- | --- | --- |
| NC(N)=Nc1ccn(C2OC(COP(=O)([O-])OP(=O)([O-])OP(=O)([O-])[O-])C(O)C2O)c(=O)n1.[K+].[K+].[K+].[K+] (stereo not shown) [invention 1] | highly significant difference | comparatively obvious | significant difference | increased | 80%-100% | – | – |
| Cc1cn(C2CC(O)C(COP(=O)([O-])OP(=O)([O-])OP(=O)([O-])[O-])O2)c(=O)nc1N=C(N)N.[K+].[K+].[K+].[K+] (stereo not shown) [invention 2] | highly significant difference | – | significant or highly significant differences | gradually increases | 40% | no significant difference | 20%-40% |
| Cc1c(O)c(N=C(N)N)nc(=O)n1C1OC(COP(=O)([O-])OP(=O)([O-])OP(=O)([O-])[O-])C(O)C1O.[K+].[K+].[K+].[K+] (stereo not shown) [invention 4] | highly significant difference | – | significant or highly significant differences | gradually increases | 20% | – | 20%-40% |
